# Counter-ions that a name gives are not always drawn.
# How the values were obtained:
# [1] = test system: drinking frequency of thirsty animals; assay: Anxiolytic activity (drinking frequency of thirsty naive rats, electro-shock); assay type: in vivo; conditions: 10 mgm/kg orally, one hour before testing; for Shocks/animal, Treated animals: 3-minute session; for Shocks/animal, Difference (treated animals vs controls): ^+ significant difference compared with control group, (A, C, H, I, K), ° difference compared with control group, p >0.1 (B, D, E, F, J), G unmarked
# Method: In their experiments, the drinking frequency of thirsty animals served as a measure for anxiety-relieving effects. Female rats with body weights between 150 and 170 gm were used as experimental animals. Food was available at all times, whereas they were deprived of water for 48 hours prior to the test session. The test apparatus was an opaque plastic box (24 × 24 × 22 cm), provided with a plexiglass cover and a […] floor. The metal drinking tube of a 250 ml-bottle covered with a hard plastic projected 2 cm from the wall into the box, the tube being attached to one side at a height of 6.5 cm. A piece of 0.2 cm at the tip of the tube was not plastic-covered. An electrical circuit was connected between the tube and the grid floor. Whenever a rat closed the circuit by licking the tube, each lick was counted electronically. At every 20th lick the animal received an electro-shock (40 V, 10 mA A.C.) via the tube ending and the grid. After the first 20 licks a time-counter was switched on, finishing the test after 3 minutes. Within this period the drinking frequency of each animal was recorded as the number of shocks delivered during the 3-minute session. […] The control groups received only the solvent or suspension agent. Statistical comparisons were made, using the Mann-Whitney-U-test (Siegel: Nonparametric Statistics, McGraw-Hill, 1956).
# [2] = test system: hindlimb tonic extensor component of the maximal seizure pattern; assay: Anticonvulsive activity in mice (maximal electroshock seizure); assay type: in vivo; conditions: Mus musculus, po, p.o.
# Method: Male mice with body weights between 20 and 26 gm were used as experimental animals. They were allowed free access to food (Altromin®) and water up to one hour before administration of the test compound. Tests were carried out by using the maximal electroshock seizure pattern[Swinyard, Brown and Goodman, J. Pharmacol. exp. Ther. 106, 319 (1952)]. The electroshock apparatus was constructed according to Woodbury and Davenport […]. The electric impulses (50 Hz A.C., 50 mA, 0.2 sec) were delivered via steel ball electrodes covered with buckskin and moistened with 0.9% sodium chloride solution placed on the heads and over the eyes of the mice. The test is a measure of the ability of anticonvulsive drugs to abolish the hindlimb tonic extensor component of the maximal seizure pattern induced by electric stimulation. The test compound was administered either as the free base or as the hydrochloride. The free base was suspended in 1% tylose, and the hydrochloride was dissolved in distilled water. […] Control groups received only the suspension agent or solvent orally. 30, 150 and 300 minutes after administration all animals were shocked.
# [3] = Acute toxicity in the mouse after intravenous administration; conditions: in vivo, i.v., mice, observed 14 days
# Method: 5 female and 5 male mice per dose, with body weights between 20 and 26 gm, served as test animals. The animals had access to food and drinking water ad libitum.
# Compounds D, E, I and J were dissolved in distilled water, compounds A, B and C in 0.2% tartaric acid, and compound G in 15% propylene glycol.
# The injected volume at the dosage level of 50 mgm/kg i.v. amounted to 0.1 ml/10 gm of animal. When the dosage was increased or diminished by 10 mgm/kg i.v., the volume was increased or diminished by […], respectively. Control groups of 10 animals each were only treated with the solvent.
# The LD50 -values were determined according to the graphic-statistical method of Litchfield and Wilcoxon [(J. Pharmacol. exp. Therap. 96, 99, (1949)].
# [4] = 0.5 h, 30 min. after administration
# [5] = 2.5 h, 150 min. after administration
# [6] = 5 h, 300 min. after administration
Structure (SMILES),"Shocks/animal, Treated animals [1]","Shocks/animal, Difference (treated animals vs controls) [1]","ED50 [2, 4]","ED50 [2, 5]","ED50 [2, 6]",LD50 at 336 h [3]
"CCN1CCCC1CNC(=O)c1cc(Cl)c(N)c(C(F)(F)F)c1 (stereo not drawn) [J, N-[1-ethyl-pyrrolidyl-(2)-methyl]-4-amino-3-chloro-5-trifluoromethyl-benzoic acid amide hydrochloride]",7.2 Shocks/animal,3.6 Shocks/animal,62 mg/kg,64 mg/kg,82 mg/kg,33.5 mg/kg
"CCN1CCCC1CNC(=O)c1cc([N+](=O)[O-])cc(Cl)c1N (stereo not drawn) [B, N-[1-ethyl-pyrrolidyl-(2)-methyl]-2-amino-3-chloro-5-nitro-benzoic acid amide]",4.9 Shocks/animal,1.2 Shocks/animal,78 mg/kg,130 mg/kg,178 mg/kg,39 mg/kg
"CCN1CCCC1CNC(=O)c1cc(Cl)cc(C(F)(F)F)c1N (stereo not drawn) [I, N-[1-Ethyl-pyrrolidyl-(2)-methyl]-2-amino-5-chloro-3-trifluoromethyl-benzoic acid amide hydrochloride]",7.5 Shocks/animal,4.6 Shocks/animal,72 mg/kg,100 mg/kg,124 mg/kg,52.5 mg/kg
"CCN1CCCC1CNC(=O)c1cc(Br)cc(Cl)c1N (stereo not drawn) [E, N-[1-ethyl-pyrrolidyl-(2)-methyl]-2-amino-5-bromo-3-chloro-benzoic acid amide hydrochloride]",7.5 Shocks/animal,4.5 Shocks/animal,44 mg/kg,68 mg/kg,109 mg/kg,25 mg/kg
"CCN1CCCC1CNC(=O)c1cc(C)cc(Cl)c1N (stereo not drawn) [A, N-[1-ethyl-pyrrolidyl-(2)-methyl]-2-amino-3-chloro-5-methyl-benzoic acid amide]",7.1 Shocks/animal,3.6 Shocks/animal,28 mg/kg,60 mg/kg,102 mg/kg,28.6 mg/kg
"CCN1CCCC1CNC(=O)c1cc(Cl)cc(Cl)c1N (stereo not drawn) [D, N-[1-ethyl-pyrrolidyl-(2)-methyl]-2-amino-3,5-dichloro-benzoic acid amide hydrochloride]",6.8 Shocks/animal,3.1 Shocks/animal,35 mg/kg,54 mg/kg,109 mg/kg,31.5 mg/kg
"Cl.Nc1ccc(C(=O)NCc2ccccc2)c(Cl)c1 [G, 4-amino-N-benzyl-2-chloro-benzoic acid amide hydrochloride]",7.1 Shocks/animal,3.8 Shocks/animal,68 mg/kg,133 mg/kg,200 mg/kg,48 mg/kg
"Cl.Nc1ccc(C(=O)NC2CCCCC2)c(Cl)c1 [F, 4-amino-2-chloro-N-cyclohexyl-benzoic acid amide hydrochloride]",5.3 Shocks/animal,2.0 Shocks/animal,38 mg/kg,50 mg/kg,116 mg/kg,–
"CN(C(=O)c1ccc(N)cc1Cl)C1CCCCC1 [H, 4-amino-2-chloro-N-cyclohexyl-N-methyl-benzoic acid amide]",7.8 Shocks/animal,4.6 Shocks/animal,200 mg/kg,155 mg/kg,200 mg/kg,–
"Nc1c(C(=O)NCc2cccnc2)cc(Cl)cc1C(F)(F)F [K, 2-amino-5-chloro-N-[pyridyl-(3)-methyl]-3-trifluoromethyl-benzoic acid amide]",9.6 Shocks/animal,6.1 Shocks/animal,> 200 mg/kg,70 mg/kg,73 mg/kg,–
"CCN1CCCC1CNC(=O)c1cc(F)c(N)c(Cl)c1 (stereo not drawn) [Compound C, N-[1-ethyl-pyrrolidyl-(2)-methyl]-4-amino-3-chloro-5-fluoro-benzoic acid amide]",6.7 Shocks/animal,3.9 Shocks/animal,37 mg/kg,50 mg/kg,128 mg/kg,28.5 mg/kg
